The values below come from patent US7553868B2, “Thiophene carboxamides as inhibitors of the enzyme IKK-2” (AstraZeneca AB, priority 2003, dated 2009).

Data set [1] in a line: Compound permeability and efflux potential using Caco-2 cell monolayers. The format is in vitro ADME, human. Further details: Caco-2 Assay Papp: unit not given here. The settings on record: human, Caco-2; 10 μM compound, pH 7.4, 120 min at 37° C.; efflux ratio; read-out: Caco-2 Assay Papp (B-A)/Papp(A-B) Ratio. The source says:
(§1) Assessment of Compound Permeability and Efflux Potential using CACO-2 Cell Monolayers.
(§2) Caco-2 cells are a cell line derived from human colon cancer cells. The Caco-2 cells retain many of the properties of the human gut, including tight junctions and transporter proteins (e.g. pgp transporter), and are used primarily to assess the potential of compounds to be absorbed after oral administration. In this assay protocol, transports in the apical to basolateral direction (A-B direction) as well as in the opposite direction (B-A direction) are determined to assess both permeability and efflux potentials of the test compounds.
(§3) Cells are seeded at a density of 100,000 cells/well onto 1 μm filters within each well of 24-well plates (Beckton-Dickinson, UK) and grown until an intact monolayer of the cells is formed across each well (14 days).
(§4) When ready for use the intactness of the monolayers is assessed using measurement of the Trans-Epithelial Resistance (TEER) within each well. If TEERs are acceptable, each test compound is added to pH 7.4 buffer to a concentration of 10 μM in either the upper (Apical; A) or lower (Basolateral; B) chambers of the individual wells of the 24-well plates in duplicate, resulting in replicate measurements of the permeability of each compound through the monolayers in both the A-B and B-A directions. Four reference compounds are incubated alongside test compounds for quality control purposes (low, medium and high permeability plus one known efflux substrate).
(§5) After mixing, an aliquot of the donor chamber is taken immediately for analysis (TO). The plates are then incubated for 120 min at 37° C., after which a further aliquot is taken from the donor chamber (used to assess recovery over the duration of the experiment), while a similar aliquot is taken from the recipient chamber at this time (T120 sample).
(§6) All sample manipulations are undertaken on a Tecan Genesis RS200 robot.
(§7) All samples are analysed using LC-electrospray MS (both + and − mode), and peak areas used to quantify each test agent.
(§8) From the data obtained the rate of transfer (Papp) of each compound across the monolayer is calculated in either the A-B or B-A directions. From the Papp(A-B) data, the potential human absorption is categorised as LOW (Papp<=[…].cm^2.sec^−1), PARTIAL (Papp>0.5<=2.9×10^6 cm^2.sec^−1) or HIGH (Papp>2.9×10^6.cm^2.sec^−1), while from the Papp(B-A)/Papp(A-B) ratio, the potential for efflux of the test compound is assessed, where a ratio≧5 is categorised as HIGH, and <5 is categorised as LOW.
On the technique in general: Caco-2 cells form a polarised layer with tight junctions and transporters.

The next data set relates to Caco-2 cell monolayers. The data set is described as above. The format is in vitro ADME, human. Also noted: Caco-2 Assay Papp: unit not given here. The settings on record: 10 μM compound, pH 7.4, 120 min at 37° C.; Papp(A-B) used for absorption category.
Description: as §1, §2, §3, §4, §5, §6, §7, §8

The target of a further data set is T1, IKK-2 (Homo sapiens, UniProt O14920).
T1 sequence (O14920 1-756): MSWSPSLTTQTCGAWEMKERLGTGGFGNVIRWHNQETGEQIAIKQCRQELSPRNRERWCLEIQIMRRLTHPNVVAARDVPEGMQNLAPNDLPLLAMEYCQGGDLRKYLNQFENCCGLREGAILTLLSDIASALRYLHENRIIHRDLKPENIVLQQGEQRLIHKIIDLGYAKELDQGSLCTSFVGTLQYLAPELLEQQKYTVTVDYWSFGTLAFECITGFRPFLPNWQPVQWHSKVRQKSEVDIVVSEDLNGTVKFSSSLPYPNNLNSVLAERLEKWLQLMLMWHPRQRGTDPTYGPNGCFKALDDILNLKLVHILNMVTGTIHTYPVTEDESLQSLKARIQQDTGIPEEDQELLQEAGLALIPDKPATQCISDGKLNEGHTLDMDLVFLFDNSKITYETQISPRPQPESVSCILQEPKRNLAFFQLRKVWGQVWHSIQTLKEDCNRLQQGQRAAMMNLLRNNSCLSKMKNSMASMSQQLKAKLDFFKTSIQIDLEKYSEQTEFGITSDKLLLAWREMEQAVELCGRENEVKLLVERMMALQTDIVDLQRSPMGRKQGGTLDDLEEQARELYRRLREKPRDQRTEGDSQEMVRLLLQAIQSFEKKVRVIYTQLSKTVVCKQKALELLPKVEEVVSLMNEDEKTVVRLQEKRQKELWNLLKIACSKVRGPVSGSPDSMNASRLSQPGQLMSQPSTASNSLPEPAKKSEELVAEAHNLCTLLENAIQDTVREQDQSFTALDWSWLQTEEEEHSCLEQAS
Nature of the data set: IKK-2 filter kinase assay. Type of data set: biochemical. The conditions noted are these: 1 μM ATP, 1-53 GST-IκB substrate, read-out: Inhibition of IKK-2. As for the experimental part:
IKK-2 Filter Kinase Assay
The test compounds were dissolved to 10 mM in dimethylsulphoxide (DMSO). The compounds were then diluted 1 in 40 in kinase buffer (50 mM Tris, pH 7.4 containing 0.1 mM EGTA, 0.1 mM sodium orthovanadate and 0.1% β-mercaptoethanol). 1 in 3 serial dilutions were made from this solution with 2.5% DMSO in kinase buffer. 20 μl of compound dilution was added to wells of a 96 well plate in duplicate. 20 μl 2.5% DMSO in kinase buffer instead of compound was added to control wells (0% inhibition). […] 10 μl of a mixture of magnesium acetate, unlabelled ATP, and ^33P-labelled ATP was added to each well made such that the final concentration was 10 mM magnesium acetate, 1 μM ATP and 0.1 μCi ^33P ATP. […] The final reaction volume was 50 μl.
The kinase reactions were incubated at 21° C. for 80 minutes and the reaction stopped by precipitating the protein by the addition of an equal volume (50 μl) of 20% trichloroacetic acid (TCA). The precipitate was allowed to form for 10 minutes and then filtered onto a GF/C unifilter 96 well plate. Each filter was washed twice with approximately 1 ml 2% TCA. The filter plate was dried at 30-40° C. for 60 minutes, 20 μl scintillant was added to each well and the plate sealed and radioactivity counted on a Packard Topcount microplate scintillation counter.

For `CN1CCC(Oc2ccccc2-c2cc(C(N)=O)c(NC(N)=O)s2)C1` (stereo not drawn) [2-[(Aminocarbonyl)amino]-5-(2-[{1-methylpyrrolidin-3-yl}oxy]phenyl)-3-thiophenecarboxamide, reference compound], the efflux ratio at 120 min, 10 μM in data set [1] came to 8.14. For the same molecule, the “Caco-2 Assay Papp” value in the data set with Caco-2 cell monolayers stood at 2.19. The IC50 at IKK-2 amounted to 10 nM.
Regarding `COCCN1CCC(Oc2ccccc2-c2cc(C(N)=O)c(NC(N)=O)s2)C1` (stereo not drawn) [2-[(Aminocarbonyl)amino]-5-(2-{[1-(2-methoxyethyl)-pyrrolidin-3-yl]oxy}phenyl)-3-thiophenecarboxamide, reference compound], the efflux ratio at 120 min, 10 μM in data set [1] is 5.88. In addition, in the data set with Caco-2 cell monolayers, the “Caco-2 Assay Papp” value is given as 1.86. Besides, the IC50 on IKK-2 amounted to 30 nM.
The like results for `NC(=O)Nc1sc(-c2ccccc2OCCN2Cc3ccccc3C2)cc1C(N)=O` [Example 5, 2-[(Aminocarbonyl)amino]-5-[2-{2-(1,3-dihydro-2H-isoindol-2-yl)ethoxy}phenyl]thiophene-3-carboxamide] were, in that order, 0.66, 14.3 and 150 nM.
`NC(=O)Nc1sc(-c2ccccc2OC2CCN(Cc3ccccc3)C2)cc1C(N)=O` (stereo not drawn) [Example 7, 2-[(Aminocarbonyl)amino]-5-[2-{[1-benzylpyrrolidin-3-yl]oxy}phenyl]thiophene-3-carboxamide]: the efflux ratio at 120 min, 10 μM in data set [1] worked out at 1.07. In addition, the “Caco-2 Assay Papp” value in the data set with Caco-2 cell monolayers is given as 15.7. The IC50 on IKK-2 amounted to 40 nM.
As to `NC(=O)Nc1cc(-c2ccccc2OCCN2Cc3ccccc3C2)sc1C(N)=O` [Example 13, 3-[(Aminocarbonyl)amino]-5-[2-{2-(1,3-dihydro-2H-isoindol-2-yl)ethoxy}phenyl]thiophene-2-carboxamide], in data set [1], the efflux ratio at 120 min, 10 μM was found to be 1.26. The “Caco-2 Assay Papp” value in the data set with Caco-2 cell monolayers was determined as 23.6. Also, the IC50 on IKK-2 was determined as 1430 nM.
